The numbers were not newly measured in patent publication US20100209503A1, “Bitter Taste Masking Dosage Form” (priority 2005, published 2010), which cites them from elsewhere.

For the data set the following is noted: expression of General Notices of Japanese Pharmacopoeia 14th revision.

The structures appear in SMILES notation. Counter-ions that a name gives are not always drawn.

Take `NC(=O)c1cccnc1` [nicotinic acid amide]: the solubility in water entry was “easily soluble (not less than 0.1 g/mL and less than 1.0 g/mL)”. For the compound `CN(C)C(=O)c1nc(CNC(=O)CN)n(-c2ccc(Cl)cc2C(=O)c2ccccc2Cl)n1` [rilmazafone hydrochloride], the solubility in water entry was “slightly soluble (not less than 0.033 g/mL and less than 0.1 g/mL)”.

With `Cc1c(C(C)C)c(=O)n(-c2ccccc2)n1C` [isopropylantipyrine], the solubility in water result was “hardly soluble (not less than 0.001 g/mL and less than 0.01 g/mL)”.
